Values after ≈ are worked out from the molar mass of the structure shown. Like-named read-outs stand apart in the source and are kept apart here. Square brackets hold non-standard residues; d marks the D form. Ends that are not written are not given here. Peptide text beside a SMILES is read from it.
Columns and labels:
[1] = tested on: B. subtilis
[2] = tested on: S. aureus
[3] = tested on: P. aeruginosa
[4] = tested on: E. coli
[5] = tested on: human erythrocytes; experiment: Hemolytic activity assay; format: cell-based
Description: The hemolytic activity of each peptide was determined by the leakage of hemoglobin from human erythrocytes (obtained from Divbioscience, NL) as previously described (Oyama et al., 2017 Biofilms Microbiomes, Dec 1;3:33).
Briefly, human erythrocytes were washed 3 times with phosphate buffer saline (PBS) and concentrated using centrifugation at 800 g for 5 min. Human erythrocytes were then resuspended in PBS at a final concentration of 8 %. 100 µl of human erythrocytes were then added per well of sterile 96 well microplate already containing 15 µl of serially diluted antimicrobials (1:2 in distilled water). After 1 h at 37°C, the microplate was centrifuged at 800 g for 5 min. 100 µl were then carefully collected and transferred to a new 96 well microplate and OD was measured at 405 nm. Hemolysis caused by peptides was expressed as percentage of hemolysis; Triton-X100 at 0.1 % (v:v) was used as positive control and gave 100 % hemolysis. Hemolysis rate was determined as below: Hemolysis rate (%) = (A−A2)/(A1−A2) × 100% [formula] where A is the absorbance of indicator mixtures with different factors, A1 and A2 are the positive control, and the negative control, respectively.

[6] = tested on: S. enterica
[7] = tested on: C. rodentium
[8] = tested on: P. aeruginosa FQR
[9] = tested on: C. farmeri
[10] = tested on: H. pylori
[11] = tested on: L. lactis
[12] = tested on: P. aeruginosa 01
[13] = tested on: A. gandavensis
[14] = tested on: B. subtilis (Nisin-resistant)
[15] = Cytotoxicity assay (resazurin); format: cell-based; conditions: human
Description: Normal human cells used were BEAS-2B (ATCC CRL-9609), IMR-90 (ATCC CCL-186) and Human Umbilical Vein Endothelial Cells (HUVEC) (from Sigma-Aldrich) corresponding respectively to human normal lung epithelial, normal lung fibroblast cells and human normal endothelial cells. All cells except HUVEC cells were cultured in Dulbecco's modified essential medium (DMEM) supplemented with 10% fetal calf serum (FCS), 1% L-glutamine and 1% antibiotics (all from Invitrogen). HUVEC cells were cultured in specific endothelial media (from Sigma Aldrich). Cells were seeded onto […] maintained in a 5% CO2 incubator at 37 °C. Cells grown on 25 cm^2 flasks were detached using trypsin-EDTA solution (from Thermofisher), counted using Mallassez counting chamber and seeded into 96-well cell culture plates (Greiner bio-one) at approximately 10,000 cells per well. The cells were left to grow for 48-72 h at 37 °C in a 5% CO2 incubator until they reached confluence. Plates were then aspirated and increasing concentrations of peptides diluted in culture media were added to the cells for 48 h at 37 °C in a 5% CO2 incubator. At the end of the incubation, wells were emptied and cell viability was evaluated using Resazurin based in vitro toxicity assay kit (from Sigma-Aldrich) following manufacturer's instructions. Briefly, Resazurin stock solution was diluted 1:10 in sterile PBS containing calcium and magnesium (PBS, pH 7.4) and empty wells were filled with 100 µL of the diluted solution. After 4 h incubation at 37 °C, fluorescence intensity was measured using microplate reader (Synergy Mx, Biotek) with an excitation wavelength of 530 nm and an emission wavelength of 590 nm. The fluorescence values were normalized by the controls (buffer treated cells) and expressed as percent viability. The IC50 values of peptides on cell viability (i.e. the concentration of derivative causing a reduction of 50% of cell viability) were determined using GraphPad® Prism 7 software. t-Test and two way ANOVA analyses were used to address the significant differences between mean values with significance set at p < 0.05.

[16] = tested on: S. flexneri
[17] = tested on: M. smegmatis; conditions: 72 h
[18] = tested on: E. coli EHEC K88
[19] = tested on: V. alginolyticus
[20] = tested on: A.baumani
[21] = BEAS-2B normal lung epithelial cells, normal lung epithelium, read-out: Cytotoxicity IC50 (µM) BEAS
[22] = HUVEC (human umbilical vein endothelial cells), normal endothelium, read-out: Cytotoxicity IC50 (µM) HUVEC
[23] = IMR-90 normal lung fibroblast cells, read-out: Cytotoxicity IC50 (µM) IMR90

For `CC[C@@H](C)[C@@H](N)C(=O)N[C@H](CC(C)C)C(=O)N[C@H](CO)C(=O)N[C@H](C)C(=O)N[C@@H](C(=O)N[C@H](CC(C)C)C(=O)NCC(=O)N[C@H](CC(C)C)C(=O)N[C@H](CC(C)C)C(=O)N[C@H](CCCCN)C(=O)N[C@H](CC(N)=O)C(=O)N[C@H](CC(C)C)C(N)=O)[C@H](C)CC` [(i1I12)enantio, ilsailgllknl] (H-[dI][dL][dS][dA][dI][dL]G[dL][dL][dK][dN][dL]-NH2), the “MIC (µM) B. subtilis” value [1] was 3.13 µM (≈ 3.96 µg/mL), the “MIC (µM) S. aureus” value [2] was 6.25 µM (≈ 7.92 µg/mL) and the “MIC (µM) P. aeruginosa” value [3] was 100 µM (≈ 127 µg/mL). The “MIC (µM) E. coli” value [4] was 100 µM (≈ 127 µg/mL).
With LKAIKKLL-NH2 [L2L9*] the “MIC (µM) P. aeruginosa” value [3] was 25 µM and the “MIC (µM) E. coli” value [4] was 100 µM.
With LNKLLGLIASLI-NH2 [L12I1] the “MIC (µM) P. aeruginosa” value [3] was 50 µM.
With KLLGLILI-NH2 [K1I8] the “MIC (µM) S. aureus” value [2] was 25 µM, the “MIC (µM) P. aeruginosa” value ([3]; Table 3, n=4) was “/ (« / » means MIC > 100µM)” and the “MIC (µM) E. coli” value [4] was 50 µM.
For ILKAIKKLLK-NH2 [I1K10*], the “hemotoxicity: no toxicity towards red blood cells up to” value ([5]; highest concentration tested) was over 10 mM.
For ILSAILGLL-NH2 [Peptides I1L9], the “MIC (µM) B. subtilis” value [1] was 100 µM and the “MIC (µM) S. aureus” value [2] was 100 µM.
In the case of ILKAIKKLLKN-NH2 [I1N11], the “MBC (µM) S. enterica” value [6] is reported as 50 µM, the “MIC (µM) S. enterica” value [6] is reported as 100 µM and the “MBC (µM) C. rodentium” value [7] is reported as 50 µM. For the same molecule, the “MIC (µM) C. rodentium” value [7] was 50 µM, the “MBC (µM) P. aeruginosa FQR” value [8] was 100 µM and the “MIC (µM) P. aeruginosa FQR” value [8] was 25 µM. The “MBC (µM) C. farmeri” value [9] was 12.5 µM, the “MIC (µM) C. farmeri” value [9] was 12.5 µM and the “MBC (µM) H. pylori” value [10] was 100 µM. For the same molecule, the “MIC (µM) H. pylori” value [10] was 100 µM, the “MBC (µM) L. lactis” value [11] was 3.12 µM and the “MIC (µM) L. lactis” value [11] was 1.5 µM. For the same molecule, the “MBC (µM) P. aeruginosa 01” value [12] was 50 µM, the “MIC (µM) P. aeruginosa 01” value [12] was 25 µM and the “MBC (µM) A. gandavensis” value [13] was 3.12 µM. The “MIC (µM) A. gandavensis” value [13] was 3.12 µM, the “MBC (µM) B. subtilis (Nisin-resistant)” value [14] was 12.5 µM and the “MIC (µM) B. subtilis (Nisin-resistant)” value [14] was 12.5 µM. The “MBC (µM) P. aeruginosa” value [3] was 6.25 µM, the “MIC (µM) P. aeruginosa” value [3] was 6.25 µM and the “MIC PA” value [3] was 6.25 µM. The CC50 at 48 h [15, 21] was 821 µM, the CC50 at 48 h [15, 22] was 826 µM and the CC50 at 48 h [15, 23] was 892 µM. For the same molecule, the “MBC (µM) S. flexneri” value [16] was 50 µM, the “MIC (µM) S. flexneri” value [16] was 50 µM and the “MIC (µM) M. smegmatis” value [17] was 25 µM. For the same molecule, the “MBC (µM) E. coli EHEC K88” value [18] was over 100 µM, the “MIC (µM) E. coli EHEC K88” value [18] was 100 µM and the “MBC (µM) V. alginolyticus” value [19] was 0.78 µM. For the same molecule, the “MIC (µM) V. alginolyticus” value [19] was 0.78 µM.
In the case of ILKAIKK-NH2 [I1K7*, ILKAIKK], the “MIC (µM) A.baumani” value [20] is reported as 100 µM, the “MIC (µM) S. aureus” value ([2]; Table 4, n=4) is reported as “/ (« / » means MIC > 100µM)” and the “MIC (µM) P. aeruginosa” value [3] is reported as 100 µM. The “MIC (µM) E. coli” value [4] was 100 µM.
With RLLGLWLW-NH2 [LTX-gallicune-2 (R1W8)] the MHC50 ([5]; human erythrocytes, 50% lysis) was 225 µM, the MHC100 ([5]; human erythrocytes, 100% lysis) was 1000 µM and the “times less toxic (hemotoxic) than Gallicus-CP” value ([5]; human erythrocytes, Fig 3) was 20 times.
With Ac-IKAIKKLLKN-NH2 [Ac I1N10*] the “MIC (µM) A.baumani” value [20] was over 100 µM, the “MIC (µM) P. aeruginosa” value [3] was 50 µM and the “MIC (µM) E. coli” value [4] was 100 µM.
With `CC[C@H](C)[C@H](NC(=O)CN)C(=O)NCC(=O)N[C@@H](C)C(=O)N[C@H](C(=O)N[C@@H](CC(C)C)C(=O)N[C@@H](CCCCN)C(=O)N[C@H](C(=O)N[C@@H](CC(C)C)C(=O)N[C@H](C(=O)N[C@H](C(=O)NCC(=O)N[C@@H](CC(C)C)C(=O)N1CCC[C@H]1C(=O)N[C@@H](C)C(=O)N[C@@H](CC(C)C)C(=O)N[C@H](C(=O)N[C@@H](CO)C(=O)N[C@@H](Cc1c[nH]c2ccccc12)C(=O)N[C@H](C(=O)N[C@@H](CCCCN)C(=O)N[C@@H](CCCNC(=N)N)C(=O)N[C@@H](CCCCN)C(=O)N[C@@H](CCCNC(=N)N)C(=O)N[C@@H](CCC(N)=O)C(=O)N[C@@H](CCC(N)=O)C(N)=O)[C@@H](C)CC)[C@@H](C)CC)[C@@H](C)O)[C@@H](C)O)C(C)C)C(C)C` [Melittine, Melittin, reference compound] the “MIC against B. subtilis” value [1] was 1.56 µM (≈ 4.44 µg/mL).
In the case of `CC[C@@H](C)[C@@H](N)C(=O)N[C@@H](CC(C)C)C(=O)N[C@@H](CCCCN)C(=O)N[C@@H](C)C(=O)N[C@H](C(=O)N[C@@H](CCCCN)C(=O)N[C@@H](CCCCN)C(=O)N[C@@H](CC(C)C)C(=O)N[C@@H](CC(C)C)C(=O)N[C@H](CCCCN)C(N)=O)[C@@H](C)CC` [i1k10*] (H-[dI]LKAIKKLL[dK]-NH2), the “MBC (µM) S. enterica” value [6] is reported as 12.5 µM (≈ 14.6 µg/mL), the “MIC (µM) S. enterica” value [6] is reported as 12.5 µM (≈ 14.6 µg/mL) and the “MIC (µM) A.baumani” value [20] is reported as 100 µM (≈ 117 µg/mL). The “MBC (µM) C. rodentium” value [7] was 12.5 µM (≈ 14.6 µg/mL), the “MIC (µM) C. rodentium” value [7] was 12.5 µM (≈ 14.6 µg/mL) and the “MBC (µM) P. aeruginosa FQR” value [8] was 25 µM (≈ 29.2 µg/mL). The “MIC (µM) P. aeruginosa FQR” value [8] was 3.12 to 6.25 µM, the “MBC (µM) C. farmeri” value [9] was 3.12 µM (≈ 3.64 µg/mL) and the “MIC (µM) C. farmeri” value [9] was 3.12 µM (≈ 3.64 µg/mL). The “MBC (µM) H. pylori” value [10] was 12.5 µM (≈ 14.6 µg/mL), the “MIC (µM) H. pylori” value [10] was 12.5 µM (≈ 14.6 µg/mL) and the “MBC (µM) L. lactis” value [11] was 1.56 µM (≈ 1.82 µg/mL). The “MIC (µM) L. lactis” value [11] was 0.78 µM (≈ 0.91 µg/mL), the “MBC (µM) P. aeruginosa 01” value [12] was 12.5 µM (≈ 14.6 µg/mL) and the “MIC (µM) P. aeruginosa 01” value [12] was 3.125 µM (≈ 3.65 µg/mL). For the same molecule, the “MBC (µM) A. gandavensis” value [13] was 0.78 µM (≈ 0.91 µg/mL), the “MIC (µM) A. gandavensis” value [13] was 0.78 µM (≈ 0.91 µg/mL) and the “MBC (µM) B. subtilis (Nisin-resistant)” value [14] was 3.12 µM (≈ 3.64 µg/mL). The “MIC (µM) B. subtilis (Nisin-resistant)” value [14] was 3.12 µM (≈ 3.64 µg/mL), the “MBC (µM) P. aeruginosa” value [3] was 1.5 µM (≈ 1.75 µg/mL) and the “MIC PA” value [3] was 0.78 µM (≈ 0.91 µg/mL). For the same molecule, the CC50 at 48 h [15, 21] was 867 µM, the CC50 at 48 h [15, 22] was 814 µM and the CC50 at 48 h [15, 23] was 783 µM. The “MBC (µM) S. flexneri” value [16] was 6.25 µM (≈ 7.29 µg/mL), the “MIC (µM) S. flexneri” value [16] was 3.12 to 6.25 µM and the “MIC (µM) M. smegmatis” value [17] was 12.5 µM (≈ 14.6 µg/mL). For the same molecule, the “MBC (µM) E. coli EHEC K88” value [18] was 6.25 µM (≈ 7.29 µg/mL), the “MIC (µM) E. coli EHEC K88” value [18] was 6.25 to 12.5 µM and the “MIC (µM) E. coli” value [4] was 50 µM (≈ 58.3 µg/mL). The “MBC (µM) V. alginolyticus” value [19] was 0.78 µM (≈ 0.91 µg/mL) and the “MIC (µM) V. alginolyticus” value [19] was 0.78 µM (≈ 0.91 µg/mL).
With LSAILGLLK-NH2 [Peptides L2K10] the “MIC (µM) B. subtilis” value [1] was 100 µM.
